# What was measured:
# [1] = system: NO production in LPS-stimulated BV2 cells; test: Inhibition of NO production in LPS-stimulated BV2 cells (Griess reagent); details: Mus musculus; for inhibition at 20 µM: BV-2, read-out: NO Inhibitory Activity % Inhibition (20 μM); for IC50: BV-2, read-out: NO Inhibitory Activity IC50
# Protocol: To evaluate the anti-inflammatory effect, all compounds were screened on an LPS-stimulated BV2 model to determine the inhibitory effects against NO production [21].
# The BV-2 mouse microglia cell line was purchased from the Cell Bank of Shanghai Institute of Biochemistry and Cell Biology, Chinese Academy of Sciences (Shanghai, China), and was cultured in Dulbecco’s modified Eagle medium (DMEM, Gibco Invitrogen Corp., Suzhou, China) supplemented with 10% fetal bovine serum (FBS), 100 units/mL penicillin, and 100 mg/mL streptomycin. The cells were placed at 37 °C in a humidified incubator containing 5% CO2.
# The inhibitory activity of the isolated compounds toward NO production was determined using the Griess reagent system (Beyotime). Cells were cultured in each well of 96-well plates at a density of 5 × 10^4 cells/well with 100 mL of DMEM for 24 h. Test samples dissolved in DMSO and diluted with DMEM were added, as well as 2 mg/mL LPS as a stimulus. The final drug concentration was 50 μM with 1% DMSO. Wells treated with only LPS served as model controls, and wells treated with neither LPS nor test samples served as blank controls (all contained 1% DMSO). After 24 h incubation, half of the medium (50 mL) in each well was harvested.
# [2] = Cytotoxic effect in BV-2 cells, Cell Counting Kit-8 (CCK-8) assay; format: cell-based; details: mouse, BV-2 microglia cells
# Protocol: Cells were pretreated with or without compounds for 2 h and then induced with 40 μg/mL LPS for another 48 h. […] The absorbance was then measured at a wavelength of 450 nm with a microplate reader (Thermo Fisher Scientific, Marietta, OH, USA). The cell proliferation was expressed as a ratio of control.
Structure (SMILES),inhibition at 20 µM [1] [%],CC50 at 50 h [2] [µM],IC50 [1] [µM]
"CC1=C2C(O)CC3(C)CCC(C)CC(=O)CC(C)CC(OC1=O)C23 (stereo not shown) [Compound 1, Clavirolide W]",15.1 ± 2.4,> 50,
"CC1=C2CCC3(C)CCC(C)CC(=O)CC(C)CC(OC1=O)C23OO (stereo not shown) [Compound 2, Clavirolide X]",36.4 ± 1.7,> 50,
"CC1=CC(=O)C=C(C)CC2OC(=O)C(C)=C3CCC(C)(CC1)C32 (stereo not shown) [Compound 3, Clavirolide Y]",42.7 ± 3.5,> 50,27 ± 0.6
"CC1=CCC2(C)CCC3=C(C)C(=O)OC(CC(C)CC(=O)C1)C32OO (stereo not shown) [Compound 4, Clavirolide Z]",29 ± 2.8,> 50,
"CC1=CC(OO)C2(C)CCC3=C(C)C(=O)OC(CC(C)CC(=O)C1)C32 (stereo not shown) [Compound 5, clavularol A]",26.8 ± 3.6,> 50,
"CC1=CC(=O)CC(C)=CC(O)C2C(C(C)(C)OO)=CCC2(C)CC1 (stereo not shown) [Compound 6, clavularol B]",14.6 ± 1.2,> 50,
"C=C1CCC=C(C)CC(O)C2C(C)(CC1)CC1OC12C(C)(C)O (stereo not shown) [Compound 7, clavularol C]",24 ± 3.8,> 50,
"C=C1CC[C@@H]2O[C@@]2(C)C[C@@H](O)C2=C(C(C)(C)O)CC[C@@]2(C)CC1 [Compound 8, Clavularol D]",35.9 ± 4.2,> 50,
"C=C1CCC2OC2(C)CC(O)C2=C(C(C)(C)O)CCC2(C)CC1 (stereo not shown) [Compound 9, Clavularol E]",12.6 ± 2.6,> 50,
"C=C1CC[C@@H]2O[C@@]2(C)C[C@@H](O)[C@@H]2C(C(C)(C)O)=CC[C@@]2(C)CC1 [Compound 10, clavularol F]",68.9 ± 3.6,> 50,18.3 ± 0.6
"C=C1CC[C@H]2O[C@]2(C)C[C@@H](O)[C@H]2[C@](C)(CC1)CC[C@@]2(O)C(=C)C [Compound 11, Clavularol G]",18.4 ± 2.8,> 50,
"C=C1CCC(O)C(C)=CC2OC(C)(C)C3=C2C(C)(CC1)CC3 (stereo not shown) [Compound 12, Clavularol H]",48.8 ± 4.2,> 50,20.3 ± 0.3
"C=C1CCC=C(C)CC(O)C2C(C(C)(C)O)=CCC2(C)CC1 (stereo not shown) [Compound 13, clavularinlide E]",45.6 ± 3.5,> 50,20.3 ± 0.3
"C=C1CCC=C(C)CC(O)C2=C(C(C)(C)O)CCC2(C)CC1 (stereo not shown) [Compound 14, clavudiol A]",25.4 ± 2.4,> 50,
"CC1=C2CC[C@@]3(C)CC[C@H](C)CC(=O)C[C@@H](C)C[C@@H](OC1=O)[C@H]23 [Compound 15, clavirolide C]",48.3 ± 3.6,> 50,23.4 ± 0.4
"[H]/N=C(/NC)NCCC[C@H](N)C(=O)O [L-NMMA, L-NG-monomethyl arginine, reference compound]",76.7 ± 4.2,,17.8 ± 0.6

# Source: paper PMC12387469, “Dolabellane Diterpenoids from Soft Coral Clavularia viridis with Anti-Inflammatory Activities” (Marine Drugs, 2025)
